Laboratory results published in US20250161290A1, “CO-CRYSTALS” (CereSpir Incorporated, priority 2021, published 2025).
≈ marks a conversion by molar mass, not a printed value. Entries after “also recorded” stand apart in the source; their conditions may differ.

Experiments:
[1] = in vivo, cited from earlier work
[2] = Solubility assessment of CSP-1103 in organic solvents (qualitative); format: physicochemical; conditions: organic solvent or mixture, thermodynamic from solid
[3] = Consolidated qualitative solubility results (Tables 6 and 8); conditions: for consolidated solubility result: Table 6; for qualitative solvent solubility overlaid with cocrystallization screens' results: Table 8, numbers are molar concentrations pending investigation
rats after TBI = conditions: cited from earlier work
[4] = test system: patients with mild cognitive impairment (MCI); conditions: listed as itanapraced, cited from earlier work
[5] = Coformer and CSP-1103 aqueous solubility assessment (qualitative); format: physicochemical; conditions: water, thermodynamic from solid, 0.05 M aqueous concentration, gentle heating at 45° C. for 1 minute
Experimental: In a 1-dram vial, enough solvent was added to achieve a 0.05 M aqueous concentration along with some gentle heating at 45° C. for 1 minute to determine if the material would completely dissolve. After 24 hours, observations were made to determine if the material had remained in solution.

[6] = Solubility assessment of CSP-1103 in organic solvents (qualitative); format: physicochemical; conditions: organic solvent or mixture, thermodynamic from solid, qualitative solubility at 0.2 M, gentle heating 45° C. 1 minute if required
Experimental: The solubility assessment of CSP-1103 was then performed. Approximately 0.05 mmol of CSP-1103 was weighed out into a 1-dram vial, enough solvent was added to achieve a 0.2 M concentration, and if required, gentle heating was applied at 45° C. for 1 minute. […] After 12 hours, observations were made to determine if the API had remained in solution.

[7] = Dynamic Vapor Sorption (DVS) water sorption/desorption; format: physicochemical; conditions: for Mass Change: 25° C.
Experimental: (§1) Samples are analyzed using a TA Instruments Q5000SA gravimetric water sorption analyzer. The relative humidity (RH) is adjusted in 10% RH increments between 5-95% (±1% RH) at 25° C. (±0.5%° C.). The mass of a sample is continuously monitored and recorded with respect to RH and time with criteria for mass equilibrium set as a percent mass change <0.0100 for 5 minutes with a time limit of 720 minutes per step. The humidity is controlled by mixing dry and wet nitrogen streams with a total flow rate of 200 mL/min. The instrument control and data analysis are operated under Advantage for Q Series and Universal Analysis software, respectively.

[8] = XRPD of pre-exposed and post-exposed DVS samples (solid form stability); format: physicochemical; conditions: two DVS sorption/desorption cycles, 5-95% RH, 25° C.
Experimental: X-ray powder diffraction analyses are obtained using a BRUKER D8 ADVANCE equipped with a Cu radiation source operated at 40 kV and 40 mA (λ=1.54 Å after Ni filtering) configured in a Bragg-Brentano geometry, equipped with a 90-position AUTO-CHANGER and a silicon strip detector (SSD160-2). A coupled theta-two theta continuous PSD (Position Sensitive Device) fast scan from 4 to 40 degrees are collected over approximately 32 minutes (0.5 sec/0.01° step). A sample is placed onto a polished zero-background silicon wafer by gently distributing onto the flat surface and is analyzed as a flat plate specimen.
as §1

[9] = Thermogravimetric analysis (TGA), degradation onset; format: physicochemical; conditions: 10° C. per minute, nitrogen purge
Experimental: TGA data are collected using a TA Instruments Discovery TGA equipped with an autosampler. Typically, 2-5 mg of sample is placed in a pre-tared, Tzero aluminum pan either as a hermetically sealed pan which would be automatically punched open before sample loading for analysis, or as an open pan. A 10° C. per minute ramp rate from ambient temperature to 375° C. using a 25 mL/min nitrogen purge is used. The instrument control and data analysis are operated under TRIOS software.

[10] = Phase 2, MCI patients, CSF / brain

solubility ([2]; MTBE, qualitative solubility at 0.1 M, gentle heating if required): > 100 mM
solubility ([2]; acetone, qualitative solubility at 0.05 M, gentle heating if required): > 50 mM
solubility ([2]; acetone, qualitative solubility at 0.1 M, gentle heating if required): < 100 mM
solubility ([2]; acetonitrile, qualitative solubility at 0.05 M, gentle heating if required): < 50 mM
solubility ([2]; acetonitrile, qualitative solubility at 0.1 M, gentle heating if required): < 100 mM
solubility ([2]; ethanol, qualitative solubility at 0.05 M, gentle heating if required): > 50 mM
solubility ([2]; ethanol, qualitative solubility at 0.1 M, gentle heating if required): < 100 mM
solubility ([2]; ethyl acetate, qualitative solubility at 0.1 M, gentle heating if required): > 100 mM
solubility ([2]; ethyl acetate, qualitative solubility at 0.2 M, gentle heating 45° C. 1 minute if required): < 200 mM
solubility ([2]; methanol, qualitative solubility at 0.05 M, gentle heating if required): > 50 mM
solubility ([2]; methanol, qualitative solubility at 0.1 M, gentle heating if required): < 100 mM
solubility ([2]; methanol, qualitative solubility at 0.2 M, gentle heating 45° C. 1 minute if required): < 200 mM
consolidated solubility result ([3]; MTBE): ✓
qualitative solvent solubility overlaid with cocrystallization screens' results ([3]; acetone (BP 56° C.)): 50 mM
consolidated solubility result ([3]; acetone): ✓
qualitative solvent solubility overlaid with cocrystallization screens' results ([3]; ethanol (BP 79° C.)): 50 mM
consolidated solubility result ([3]; ethanol): ✓
consolidated solubility result ([3]; ethyl acetate): ✓
qualitative solvent solubility overlaid with cocrystallization screens' results ([3]; methanol (BP 65° C.)): 50 mM
consolidated solubility result ([3]; methanol): ✓
solubility [5]: < 50 mM
solubility ([6]; MTBE): < 200 mM
solubility ([6]; acetone): < 200 mM
solubility ([6]; acetonitrile): < 200 mM
solubility ([6]; ethanol): < 200 mM
Mass Change ([7]; Cycle 1 of 2, Adsorption, RH 5 to 95%): 1.10%
Mass Change ([7]; Cycle 1 of 2, Desorption, RH 95 to 5%): −1.11%
Mass Change ([7]; Cycle 2 of 2, Adsorption, RH 5 to 95%): 1.13%
Mass Change ([7]; Cycle 2 of 2, Desorption, RH 95 to 5%): −1.13%
hygroscopicity classification ([7]; at 95% RH, Ph. Eur. 9.0 (slightly: <2% and ≥0.2%; non: <0.2%)): slightly hygroscopic
average water sorbed or desorbed ([7]; between 5-95% RH): 1.1±0.0%
solubility (physchem; MTBE, organic solvent or mixture): 100 mM (≈ 32.5 mg/mL)
solubility (physchem; acetonitrile, organic solvent or mixture): < 50 mM
solubility (physchem; ethyl acetate, organic solvent or mixture): 100 mM (≈ 32.5 mg/mL)
solubility (physchem; water): < 50 mM
solid form change after DVS exposure (XRPD pre- vs post-exposed) [8]: no solid form change
solid form change after DVS exposure (XRPD pre- vs post-exposed) ([8]; listed as CSP): no solid state form changes
degradation start by TGA [9]: > 200 °C
SMILES: O=C(O)C1(c2ccc(-c3ccc(Cl)c(Cl)c3)c(F)c2)CC1 [CSP-1103, 1-(3′,4′-dichloro-2-fluoro[1,1′-biphenyl]-4-yl)-cyclopropanecarboxylic acid]
oral bioavailability ([1]; po): good oral bioavailability
penetration into the brain [1]: substantial penetration into the brain
plasma half-life [1]: long plasma half-life
accumulation of hypertrophic microglia in the injured brain (rats after TBI): prevented the accumulation of hypertrophic microglia
acute lung injury (rats after TBI): attenuated
neurological injury (rats after TBI): attenuated
safety and tolerability ([4]; Phase 2, MCI patients treated up to two years): good safety and tolerability; also recorded: well tolerated
TNF-α (neuroinflammatory mediator) [4, 10]: beneficial dose-related CSF differences; also recorded: dose-related statistically significant reductions
soluble CD40 ligand (neuroinflammatory mediator) [4, 10]: beneficial dose-related CSF differences; also recorded: dose-related statistically significant reductions
total tau (marker of neurodegeneration) [4, 10]: beneficial dose-related CSF differences; also recorded: dose-related statistically significant reductions
cognitive function ([4]; throughout the duration of the trial): stable cognition; also recorded: stable cognitive function
